Assay results published in patent US20100092526A1, “NANOEMULSION THERAPEUTIC COMPOSITIONS AND METHODS OF USING THE SAME” (NanoBio Corporation, priority 2008, published 2010).
≈ marks a conversion by molar mass, not a printed value.

Columns and labels:
[1] = test system: methicillin-resistant Staphylococcus aureus (MRSA); experiment: Susceptibility (MIC/MBC) of MRSA clinical isolates; format: cell-based; details: Staphylococcus aureus; MRSA isolates; read-out: MIC90
[2] = test system: P. aeruginosa, B. cenocepacia, A. baumannii and S. maltophilia; experiment: MIC/MBC against all strains of Example 8; details: for MBC: read-out: MBC90, against all strains
[3] = test system: subset (23) of gram-negative isolates; experiment: Cidality (MBC/MIC ratio) against a subset (23) of gram-negative isolates; format: cell-based, gram-negative bacteria; details: 23 isolates
Acinetobacter strains = experiment: Checkerboard synergy study (FIC/FBC index); format: cell-based; details: for Summary of synergy data (overall interaction): Acinetobacter, combined with P4075EC & 1 mM EDTA
Burkholderia strains = experiment: Checkerboard synergy study (FIC/FBC index); format: cell-based; details: for Summary of synergy data (overall interaction): Burkholderia, combined with P4075EC & 5 mM EDTA
Stenotrophomonas strains = experiment: Checkerboard synergy study (FIC/FBC index); format: cell-based; details: for Summary of synergy data (overall interaction): Stenotrophomonas, combined with P4075EC & 1 mM EDTA
[4] = isolate NB31, combined with P4075EC+EDTA
[5] = isolate NB32, combined with P4075EC+EDTA
[6] = isolate NB33, combined with P4075EC+EDTA
[7] = isolate NB34, combined with P4075EC+EDTA
[8] = isolate NB35, combined with P4075EC+EDTA
[9] = isolate NB36, combined with P4075EC+EDTA
[10] = isolate NB37, combined with P4075EC+EDTA
[11] = isolate NB38, combined with P4075EC+EDTA
[12] = isolate NB39, combined with P4075EC+EDTA
[13] = isolate NB40, combined with P4075EC+EDTA
[14] = share of 10 Acinetobacter strains with synergy, combined with P4075EC+EDTA
[15] = isolate NB21, combined with P4075EC+EDTA
[16] = isolate NB22, combined with P4075EC+EDTA
[17] = isolate NB23, combined with P4075EC+EDTA
[18] = isolate NB24, combined with P4075EC+EDTA
[19] = isolate NB25, combined with P4075EC+EDTA
[20] = isolate NB26, combined with P4075EC+EDTA
[21] = isolate NB27, combined with P4075EC+EDTA
[22] = isolate NB28b, combined with P4075EC+EDTA
[23] = isolate NB29, combined with P4075EC+EDTA
[24] = isolate NB30, combined with P4075EC+EDTA
[25] = share of ten Burkholderia strains with synergy, combined with P4075EC+EDTA
[26] = isolate NB42, combined with P4075EC+EDTA
[27] = isolate NB43, combined with P4075EC+EDTA
[28] = isolate NB44, combined with P4075EC+EDTA
[29] = isolate NB45, combined with P4075EC+EDTA
[30] = isolate Steno 1, combined with P4075EC+EDTA
[31] = isolate Steno 2, combined with P4075EC+EDTA
[32] = isolate Steno 3, combined with P4075EC+EDTA
[33] = isolate Steno 4, combined with P4075EC+EDTA
[34] = isolate Steno 6, combined with P4075EC+EDTA
[35] = isolate Steno 8, combined with P4075EC+EDTA
[36] = share of Stenotrophomonas strains with synergy, combined with P4075EC+EDTA

## C[C@H]1COc2c(N3CCN(C)CC3)c(F)cc3c(=O)c(C(=O)O)cn1c23 [Levofloxacin]
[1]
  MIC90: 32 µg/mL (≈ 88.6 µM)
[2]
  MIC90: 16 µg/mL (≈ 44.3 µM)
  MBC: 16 µg/mL (≈ 44.3 µM)
[3]; Cidal
  number of strains with MBC/MIC ratio 1: 9 number of strains
  number of strains with MBC/MIC ratio 2: 8 number of strains
  number of strains with MBC/MIC ratio 4: 1 number of strains
[3]; Static
  number of strains with MBC/MIC ratio >8x: 5 number of strains

## NC[C@H]1O[C@H](O[C@H]2[C@H](O)[C@@H](O[C@H]3O[C@H](CO)[C@@H](O)[C@H](N)[C@H]3O)[C@H](N)C[C@@H]2N)[C@H](N)C[C@@H]1O [Tobramycin]
Acinetobacter strains
  Summary of synergy data (overall interaction): No Interference
Burkholderia strains
  Summary of synergy data (overall interaction): No Interference
Stenotrophomonas strains
  Summary of synergy data (overall interaction): No Interference
[2]
  MIC90: > 32 µg/mL
  MBC: > 32 µg/mL

## Colistin
Acinetobacter strains
  Summary of synergy data (overall interaction): No Interference
Acinetobacter strains; [4]
  FBC: 2.44
  FIC: 0.83
  Synergy (FBC): indifferent
  Synergy (FIC): indifferent
Acinetobacter strains; [5]
  FBC: 1.36
  FIC: 0.58
  Synergy (FBC): indifferent
  Synergy (FIC): indifferent
Acinetobacter strains; [6]
  FBC: 2
  FIC: 0.33
  Synergy (FBC): indifferent
  Synergy (FIC): yes
Acinetobacter strains; [7]
  FBC: 1.10
  FIC: 0.46
  Synergy (FBC): indifferent
  Synergy (FIC): yes
Acinetobacter strains; [8]
  FBC: 0.97
  FIC: 0.72
  Synergy (FBC): indifferent
  Synergy (FIC): indifferent
Acinetobacter strains; [9]
  FBC: 2
  FIC: 0.56
  Synergy (FBC): indifferent
  Synergy (FIC): indifferent
Acinetobacter strains; [10]
  FBC: 1.00
  FIC: 0.63
  Synergy (FBC): indifferent
  Synergy (FIC): indifferent
Acinetobacter strains; [11]
  FBC: 0.68
  FIC: 0.77
  Synergy (FBC): indifferent
  Synergy (FIC): indifferent
Acinetobacter strains; [12]
  FBC: 1.22
  FIC: 0.72
  Synergy (FBC): indifferent
  Synergy (FIC): indifferent
Acinetobacter strains; [13]
  FBC: 0.91
  FIC: 0.63
  Synergy (FBC): indifferent
  Synergy (FIC): indifferent
Acinetobacter strains; [14]
  % FBC Synergy: 0%
  % FIC Synergy: 20%
Burkholderia strains
  Summary of synergy data (overall interaction): No Interference
Burkholderia strains; [15]
  FBC: 2.07
  FIC: 1.45
  Synergy (FBC): indifferent
  Synergy (FIC): indifferent
Burkholderia strains; [16]
  FBC: 2.29
  FIC: 1.37
  Synergy (FBC): indifferent
  Synergy (FIC): indifferent
Burkholderia strains; [17]
  FBC: 2.00
  FIC: 1.01
  Synergy (FBC): indifferent
  Synergy (FIC): indifferent
Burkholderia strains; [18]
  FBC: 2.00
  FIC: 1.72
  Synergy (FBC): indifferent
  Synergy (FIC): indifferent
Burkholderia strains; [19]
  FBC: 3.00
  FIC: 2.00
  Synergy (FBC): indifferent
  Synergy (FIC): indifferent
Burkholderia strains; [20]
  FBC: 0.04
  FIC: 0.56
  Synergy (FBC): yes
  Synergy (FIC): yes
Burkholderia strains; [21]
  FBC: 1.64
  FIC: 1.93
  Synergy (FBC): indifferent
  Synergy (FIC): indifferent
Burkholderia strains; [22]
  FBC: 1.54
  FIC: 0.29
  Synergy (FBC): indifferent
  Synergy (FIC): yes
Burkholderia strains; [23]
  FBC: 1.68
  FIC: 1.61
  Synergy (FBC): indifferent
  Synergy (FIC): indifferent
Burkholderia strains; [24]
  FBC: 1.86
  FIC: 0.02
  Synergy (FBC): indifferent
  Synergy (FIC): yes
Burkholderia strains; [25]
  % FBC Synergy: 10%
  % FIC Synergy: 30%
Stenotrophomonas strains
  Summary of synergy data (overall interaction): Synergy
Stenotrophomonas strains; [26]
  FBC: 1.28
  FIC: 0.08
  Synergy (FBC): indifferent
  Synergy (FIC): yes
Stenotrophomonas strains; [27]
  FBC: 0.15
  FIC: 0.08
  Synergy (FBC): yes
  Synergy (FIC): yes
Stenotrophomonas strains; [28]
  FBC: 0.57
  FIC: 1.01
  Synergy (FBC): indifferent
  Synergy (FIC): indifferent
Stenotrophomonas strains; [29]
  FBC: 0.45
  FIC: 0.04
  Synergy (FBC): yes
  Synergy (FIC): yes
Stenotrophomonas strains; [30]
  FBC: 0.11
  FIC: 0.08
  Synergy (FBC): yes
  Synergy (FIC): yes
Stenotrophomonas strains; [31]
  FBC: 0.04
  FIC: 0.09
  Synergy (FBC): yes
  Synergy (FIC): yes
Stenotrophomonas strains; [32]
  FBC: 0.14
  FIC: 0.09
  Synergy (FBC): yes
  Synergy (FIC): yes
Stenotrophomonas strains; [33]
  FBC: 1.14
  FIC: 0.46
  Synergy (FBC): indifferent
  Synergy (FIC): yes
Stenotrophomonas strains; [34]
  FBC: 0.02
  FIC: 0.09
  Synergy (FBC): yes
  Synergy (FIC): yes
Stenotrophomonas strains; [35]
  FBC: 0.07
  FIC: 0.09
  Synergy (FBC): yes
  Synergy (FIC): yes
Stenotrophomonas strains; [36]
  % FBC Synergy: 70%
  % FIC Synergy: 90%
